Data: patent US6586404B1 (priority 1996, dated 2003)
Like-named read-outs stand apart in the source and are kept apart here.

How the values were obtained:
Mouse = details: pretreatment with GSH; cited from earlier work
in vivo = details: po
Description: Once past the stomach, it is important that the glutathione be immediately available for absorption, as the desulfurases and peptidases from the pancreas, as well as the increase in pH, do tend to degrade the glutathione. […] Thus, by providing a high concentration of glutathione in the duodenum, without substantial dilution, the glutathione may be absorbed at a maximum rate.

[1] = tested on: systolic and diastolic blood pressure; details: cited from earlier work
guinea pigs = details: non-ascorbate deficient animals, double the dose of 3.75 mmol/kg daily; cited from earlier work
[2] = human, in vivo, iv; cited from earlier work

N[C@@H](CCC(=O)N[C@@H](CS)C(=O)NCC(=O)O)C(=O)O [GSH, gamma-glutamyl-cysteinyl-glycine]
effect on morphine-induced lethality (Mouse): protects against morphine-induced lethality | bioavailability (in vivo): ~90% | time of return of blood pressure to baseline ([1]; 1,844 mg i.v. bolus): ≤ 30 min | blood pressure effect ([1]; 1,844 mg i.v. bolus, hypertensive patients and non-hypertensive diabetics): rapid and significant decrease in both systolic and diastolic blood pressure | blood pressure effect ([1]; 1,844 mg i.v. bolus, normal healthy subjects): no effect | blood pressure effect ([1]; 3,699 mg dose, normal subjects): significant decrease in the blood pressure values | toxicity (guinea pigs): seen at double this dose | half-life [2]: 14.1−9.2 minutes | volume of distribution of exogenous glutathione [2]: 176−107 Ml/Kg
